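Interpolation was linear, between the two tested concentrations surrounding the appropriate level; five concentrations were tested over 48 hours in 96-well plates. Here, GI50 denotes the concentration required for 50% inhibition of growth.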 Calls of active or inactive are those of the source. No stated cut-off is given here; in the data, active = GI50 up to about 1.1 µM and inactive = higher.
How the values were obtained:
Assay in all cases: NCI tumour cell line growth inhibition, 48 h
TK-10 = tested on: TK-10
NCI-H522 = tested on: NCI-H522
DU-145 = tested on: DU-145
EKVX = tested on: EKVX
SF-539 = tested on: SF-539
HOP-62 = tested on: HOP-62
Malme-3M = tested on: Malme-3M
MOLT-4 = tested on: MOLT-4
MDA-MB-435 = tested on: MDA-MB-435
HT-29 = tested on: HT-29
OVCAR-8 = tested on: OVCAR-8
A549 = tested on: A549
SNB-75 = tested on: SNB-75
RPMI-8226 = tested on: RPMI-8226
IGROV-1 = tested on: IGROV-1
SK-OV-3 = tested on: SK-OV-3
KM12 = tested on: KM12
MCF7 = tested on: MCF7
RXF 393 = tested on: RXF 393
SK-MEL-28 = tested on: SK-MEL-28
NCI-H23 = tested on: NCI-H23
HOP-92 = tested on: HOP-92
PC-3 = tested on: PC-3
CCRF-CEM = tested on: CCRF-CEM
UACC-62 = tested on: UACC-62
HCT-116 = tested on: HCT-116
HCT-15 = tested on: HCT-15
A498 = tested on: A498
BT-549 = tested on: BT-549
NCI/ADR-RES = tested on: NCI/ADR-RES
NCI-H460 = tested on: NCI-H460
UACC-257 = tested on: UACC-257
HL-60 = tested on: HL-60
UO-31 = tested on: UO-31
SF-295 = tested on: SF-295
SN12C = tested on: SN12C
K562 = tested on: K562
COLO 205 = tested on: COLO 205
SNB-19 = tested on: SNB-19
ACHN = tested on: ACHN
LOX IMVI = tested on: LOX IMVI
OVCAR-5 = tested on: OVCAR-5
SK-MEL-2 = tested on: SK-MEL-2
OVCAR-4 = tested on: OVCAR-4
U-251 = tested on: U-251
CAKI-1 = tested on: CAKI-1
OVCAR-3 = tested on: OVCAR-3
786-0 = tested on: 786-0
T47D = tested on: T47D
SW-620 = tested on: SW-620
MDA-MB-231 = tested on: MDA-MB-231
SF-268 = tested on: SF-268
SK-MEL-5 = tested on: SK-MEL-5
Hs-578T = tested on: Hs-578T
M14 = tested on: M14
NCI-H226 = tested on: NCI-H226
SR = tested on: SR

Measured: GI50

N=C(N)N/N=C/c1c(-c2ccccc2)nc2ccn3c(/C=N/N=C(N)N)c(-c4ccccc4)nc3n12
38.4 µM: HCT-15
inactive: TK-10 59 µM | NCI-H522 21.3 µM | DU-145 58.1 µM | EKVX 21.9 µM | SF-539 > 100 µM | HOP-62 55.1 µM | Malme-3M 26.2 µM | MOLT-4 > 100 µM | MDA-MB-435 61.2 µM | HT-29 34.1 µM | OVCAR-8 26.5 µM | A549 51.2 µM | SNB-75 > 100 µM | RPMI-8226 > 100 µM | IGROV-1 2.11 µM | SK-OV-3 37.7 µM | KM12 26.9 µM | MCF7 40.2 µM | RXF 393 > 100 µM | SK-MEL-28 39.5 µM | NCI-H23 > 100 µM | HOP-92 > 100 µM | PC-3 62.8 µM | CCRF-CEM > 100 µM | UACC-62 38.9 µM | HCT-116 26.6 µM | A498 46.8 µM | BT-549 69 µM | NCI/ADR-RES > 100 µM | NCI-H460 32.2 µM | UACC-257 23.5 µM | HL-60 72.6 µM | UO-31 46.5 µM | SF-295 55.3 µM | SN12C 38.8 µM | K562 > 100 µM | COLO 205 43.3 µM | SNB-19 20.3 µM | ACHN 21.8 µM | LOX IMVI 48.8 µM | OVCAR-5 37 µM | SK-MEL-2 > 100 µM | OVCAR-4 > 100 µM | U-251 58.5 µM | CAKI-1 > 100 µM | OVCAR-3 68.5 µM | 786-0 82.6 µM | T47D > 100 µM | SW-620 36.9 µM | MDA-MB-231 > 100 µM | SF-268 > 100 µM | SK-MEL-5 48.4 µM | Hs-578T 39.5 µM | M14 49.3 µM | NCI-H226 > 100 µM

CC(=O)c1nc2ccccc2n1CC(=O)c1ccc([N+](=O)[O-])cc1
42.3 µM: HCT-15
inactive: TK-10 42.5 µM | NCI-H522 2.93 µM | DU-145 31.6 µM | EKVX > 100 µM | SF-539 22.3 µM | HOP-62 5.06 µM | Malme-3M 11.6 µM | MOLT-4 5.52 µM | MDA-MB-435 22 µM | HT-29 15.2 µM | OVCAR-8 8.49 µM | A549 11.4 µM | SNB-75 35.3 µM | RPMI-8226 20.1 µM | IGROV-1 3.12 µM | SK-OV-3 31.2 µM | KM12 5.46 µM | SR 7.45 µM | MCF7 16.7 µM | RXF 393 23.8 µM | SK-MEL-28 52.6 µM | NCI-H23 31.3 µM | PC-3 10.4 µM | CCRF-CEM 9.84 µM | UACC-62 10 µM | HCT-116 8.2 µM | A498 55.2 µM | BT-549 12.6 µM | NCI/ADR-RES 13.4 µM | NCI-H460 5.74 µM | UACC-257 33.6 µM | HL-60 13.8 µM | UO-31 14.9 µM | SF-295 17.7 µM | SN12C 17.8 µM | K562 5.5 µM | COLO 205 34.8 µM | SNB-19 13.5 µM | LOX IMVI 7.26 µM | OVCAR-4 34.8 µM | U-251 4.38 µM | CAKI-1 17.4 µM | OVCAR-3 13.5 µM | 786-0 3.47 µM | T47D 8.18 µM | SW-620 10.6 µM | MDA-MB-231 26.1 µM | SF-268 30.8 µM | Hs-578T 6.68 µM | M14 77.1 µM | NCI-H226 21.5 µM

From ChEMBL document CHEMBL1201862, “PubChem BioAssay data set” (2004)
